Active and inactive are the calls of the source. The rule behind the calls is not given here. Starred links: 1 amine or outer side, 2 acyl side, 3 side chain; linkers in the order of their positions; H or OH if unused. Positions of bridges follow the written chain, without caps; N, C: chain ends. Non-standard residues stand in square brackets, D forms with d. Residues, ends and D or L forms follow the SMILES beside them. ξ: configuration not given here. X1 = NC(CC(=O)[*:1])C(=O)[*:2]; ξOrn = NCCCC(N)C(=O)O; Nlys = NCCCCNCC(=O)O; ξK = NCCCCC(N)C(=O)O
Columns and labels:
[1] = Binding affinity to His-tagged HIV-1 integrase C56S, W131D, F185K and […] mutant by fluorescence anisotropy; parameters: species or system Human immunodeficiency virus 1
[2] = test system: Human immunodeficiency virus 1; assay: Antiviral activity against wild type HIV1 infected in human H9 cells assessed as p24 protein expression pre-incubated with cells for 2 hrs at 12.5 uM measured after 8 days post infection using multiple dose study wherein additional dose was added every 2 days; format: functional; conditions: for inhibition at 12.5 µM: Human immunodeficiency virus 1, H9
[3] = test system: Human immunodeficiency virus 1; assay: Antiviral activity against wild type HIV1 infected in human H9 cells assessed as p24 protein expression pre-incubated with cells for 2 hrs at 12.5 uM measured after 8 days post infection using single dose study; format: functional; conditions: for inhibition at 12.5 µM: Human immunodeficiency virus 1, H9
[4] = test system: Human immunodeficiency virus 1; assay: Inhibition of His-tagged HIV-1 integrase C56S, W131D, F185K and […] mutant at 20 uM by fluorescence anisotropy
[5] = test system: Human immunodeficiency virus 1; assay: Antiviral activity against wild type HIV1 infected in human H9 cells assessed as p24 protein expression pre-incubated with cells for 2 hrs at 12.5 uM measured after 6 days post infection using multiple dose study wherein additional dose was added every 2 days; format: functional; conditions: for inhibition at 12.5 µM: Human immunodeficiency virus 1, H9
[6] = Stability in trypsin and chymotrypsin extract assessed as duration showing initiation of compound degradation at 37 degC by mass spectrometry; format: ADME
[7] = test system: Human immunodeficiency virus 1; assay: Antiviral activity against wild type HIV1 infected in human H9 cells assessed as p24 protein expression pre-incubated with cells for 2 hrs at 12.5 uM measured after 6 days post infection using single dose study; format: functional; conditions: for inhibition at 12.5 µM: Human immunodeficiency virus 1, H9

Compound	Kd [1]	inhibition [2]	inhibition [3]	inhibition [4]	inhibition [5]	Stability [6]	inhibition [7]	inhibition at 12.5 µM [2]	inhibition at 12.5 µM [3]	inhibition at 12.5 µM [5]	inhibition at 12.5 µM [7]
H-WNSLKIDNLDV-OH	5.1 µM	Active	inactive	83%	Active	30 min	inactive				
CC[C@H](C)[C@@H]1NC(=O)[C@H](CCCCN)NC(=O)[C@H](CC(C)C)NC(=O)[C@H](CO)NC(=O)[C@H](CC(N)=O)NC(=O)[C@H](Cc2c[nH]c3ccccc23)NC(=O)CC(N)C(=O)NCCCC(C(N)=O)NC(=O)[C@H](C(C)C)NC(=O)[C@H](CC(=O)O)NC(=O)[C@H](CC(C)C)NC(=O)[C@H](CC(N)=O)NC(=O)[C@H](CC(=O)O)NC1=O (stereo partly drawn) (WNSLKIDNLDV[ξOrn]-NH2; linker N-12 via X1)	2 µM			50%		150 min		40%	25%	40%	25%
CC[C@H](C)[C@@H]1NC(=O)[C@H](CCCCN)NC(=O)[C@H](CC(C)C)NC(=O)[C@H](CO)NC(=O)[C@H](CC(N)=O)NC(=O)[C@H](Cc2c[nH]c3ccccc23)NC(=O)CC(N)C(=O)NCCCCC(C(N)=O)NC(=O)[C@H](C(C)C)NC(=O)[C@H](CC(=O)O)NC(=O)[C@H](CC(C)C)NC(=O)[C@H](CC(N)=O)NC(=O)[C@H](CC(=O)O)NC1=O (stereo partly drawn) (WNSLKIDNLDV[ξK]-NH2; linker N-12 via X1)	2.5 µM			55%		150 min		85%	65%	85%	80%
CC[C@H](C)[C@@H]1NC(=O)[C@H](CCCCN)NC(=O)[C@H](CC(C)C)NC(=O)[C@H](CO)NC(=O)[C@H](CC(N)=O)NC(=O)[C@H](Cc2c[nH]c3ccccc23)NC(=O)CC(N)C(=O)NCCCCN(CC(N)=O)C(=O)[C@H](C(C)C)NC(=O)[C@H](CC(=O)O)NC(=O)[C@H](CC(C)C)NC(=O)[C@H](CC(N)=O)NC(=O)[C@H](CC(=O)O)NC1=O (stereo partly drawn) (WNSLKIDNLDV[Nlys]-NH2; linker N-12 via X1)	5 µM	Active		90%	Active	150 min			90%		90%

— ChEMBL document CHEMBL2016519, “A comparative study of backbone versus side chain peptide cyclization: application for HIV-1 integrase inhibitors” (Bioorg Med Chem, 2012)
